Measured values taken from publication PMC6001238, “Iterative Chemical Engineering of Vancomycin Leads to Novel Vancomycin Analogs With a High in Vitro Therapeutic Index” (Frontiers in Microbiology, 2018).
Values after ≈ are worked out from the molar mass of the structure shown. Read-outs that look alike come from different tables or passages of the source.

Legend:
[1] = tested on: Clostridium difficile AIU ribotype 027; assay: MIC, plate drop assay, C. difficile AIU ribotype 027; type: cell-based; details: C. difficile AIU ribotype 027
In short: (§1)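 Twofold dilution series of test compounds were spotted onto C. difficile lawns in 0.4% BHI agar containing added calcium and magnesium salts. After overnight anaerobic incubation at 37°C, growth inhibition was scored by spot clearing; triplicate runs, ultrapure water negative control.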

MRSA KS2 = assay: MIC, broth microdilution, MRSA KS2; type: cell-based, Staphylococcus aureus
In short: (§2)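 Serial dilutions in broth, set up per CLSI guidance, gave the MIC. Where noted, test analogues or comparator antibiotics were combined with vancomycin at 10 μM final. Controls: ultrapure water, broth without inoculum.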

[2] = tested on: 24 clinical MRSA isolates; assay: MIC against a set of 24 clinical MRSA isolates (range, MIC50, TI); type: cell-based, Staphylococcus aureus
In short: as §2

VE 150 (VanB) = assay: MIC, VanB-type VRE strain VE 150; type: cell-based, Enterococcus; details: VE 150, VanB; read-out: MIC
In short: as §2

VE 82 (VanC1) = assay: MIC, VanC1-type VRE strain VE 82; type: cell-based, Enterococcus gallinarum; details: VE 82, VanC1; read-out: MIC
In short: as §2

[3] = tested on: human cervix carcinoma (HeLa) cells; assay: Cytostatic activity, HeLa cell proliferation; type: cell-based; details: mean ± SD of three experiments; highest concentration tested 250 µM; 4 days; read-out: Toxicity (IC50) HeLa
In short: (§3)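 Readout: Coulter cell number after drug exposure at 37°C. Durations differ by line (L1210 2 days; CEM 3 days; HeLa 4 days). Stock suspension 300,000–500,000 cells/mL, diluted by mixing with compound. Endpoint: IC50 vs negative control.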

[4] = tested on: Clostridium difficile ATJ ribotype 014/20; assay: MIC, plate drop assay, C. difficile ATJ ribotype 014/20; type: cell-based; details: C. difficile ATJ ribotype 014/20
In short: as §1

VE 157 (VanB) = assay: MIC, VanB-type VRE strain VE 157; type: cell-based, Enterococcus; details: VE 157, VanB; read-out: MIC
In short: as §2

MRSA KS89 = assay: MIC, broth microdilution, MRSA KS89; type: cell-based, Staphylococcus aureus
In short: as §2

VE 152 (VanB) = assay: MIC, VanB-type VRE strain VE 152; type: cell-based, Enterococcus; details: VE 152, VanB; read-out: MIC
In short: as §2

MRSA KS1 = assay: MIC, broth microdilution, MRSA KS1; type: cell-based, Staphylococcus aureus
In short: as §2

E. faecalis VSE 1 = assay: MIC, broth microdilution, vancomycin-sensitive E. faecalis (VSE 1); type: cell-based, Enterococcus faecalis
In short: as §2

VE 149 (VanB) = assay: MIC, VanB-type VRE strain VE 149; type: cell-based, Enterococcus; details: VE 149, VanB; read-out: MIC
In short: as §2

[5] = tested on: human T-lymphocyte (CEM) cells; assay: Cytostatic activity, CEM cell proliferation; type: cell-based; details: mean ± SD of three experiments; highest concentration tested 250 µM; 3 days; read-out: Toxicity (IC50) CEM
In short: as §3

MRSA = assay: Minimum bactericidal concentration against MRSA; type: cell-based, Staphylococcus aureus
Method: Plates were incubated overnight at 37°C and colony growth was inspected.

S. aureus VISA/HIP5827 = assay: MIC, broth microdilution, vancomycin-intermediate S. aureus VISA HIP5827; type: cell-based, Staphylococcus aureus
In short: as §2

[6] = tested on: Murine leukemia (L1210) cells; assay: Cytostatic activity, L1210 cell proliferation; type: cell-based; details: mean ± SD of three experiments; highest concentration tested 250 µM; 2 days; read-out: Toxicity (IC50) L1210
In short: as §3

[7] = tested on: L1210, CEM and HeLa cell lines; assay: Cytostatic activity, average or summary over L1210, CEM and HeLa; type: cell-based
In short: as §3

E. faecalis VRE 29 = assay: MIC, broth microdilution, vancomycin-resistant E. faecalis VRE 29 (VanA); type: cell-based, Enterococcus faecalis
In short: as §2

33 clinical VRE isolates = assay: MIC against a set of 33 clinical VRE isolates (range, MIC50, TI); type: cell-based, Enterococcus faecalis
In short: as §2

E. faecalis VRE 37 = assay: MIC, broth microdilution, vancomycin-resistant E. faecalis VRE 37 (VanA); type: cell-based, Enterococcus faecalis
In short: as §2

VE 148 (VanB) = assay: MIC, VanB-type VRE strain VE 148; type: cell-based, Enterococcus; details: VE 148, VanB; read-out: MIC
In short: as §2

E. faecalis VRE 6 = assay: MIC, broth microdilution, vancomycin-resistant E. faecalis VRE 6 (VanA); type: cell-based, Enterococcus faecalis
In short: as §2

[8] = tested on: S. aureus VSSA (ATCC 6538); assay: MIC, broth microdilution, vancomycin-sensitive S. aureus (VSSA/MSSA, ATCC 6538); type: cell-based, Staphylococcus aureus
In short: as §2

E. faecalis VRE 53 = assay: MIC, broth microdilution, vancomycin-resistant E. faecalis VRE 53 (VanA); type: cell-based, Enterococcus faecalis
In short: as §2

MRSA KS6 = assay: MIC, broth microdilution, MRSA KS6; type: cell-based, Staphylococcus aureus
In short: as §2

S. aureus VRSA = assay: MIC, broth microdilution, vancomycin-resistant S. aureus (VRSA); type: cell-based, Staphylococcus aureus
In short: as §2

CCCCc1ccc(NC(=O)CNC(=O)[C@H]2NC(=O)[C@H]3NC(=O)[C@H](NC(=O)[C@@H]4NC(=O)[C@H](CC(N)=O)NC(=O)[C@H](NC(=O)[C@@H](CC(C)C)NC)[C@H](O)c5ccc(c(Cl)c5)Oc5cc4cc(c5O[C@@H]4O[C@H](CO)[C@@H](O)[C@H](O)[C@H]4O[C@H]4C[C@](C)(N)[C@H](O)[C@H](C)O4)Oc4ccc(cc4Cl)[C@H]3O)c3ccc(O)c(c3)-c3c(O)cc(O)cc32)cc1 [Vanc-39]
MIC-fold improvement vs. vancomycin [1]: 14
MIC-fold improvement vs. vancomycin (MRSA KS2; MRSA KS2, ratio of MIC of vancomycin and MIC of analogue): 4
MIC (MRSA KS2; Staphylococcus aureus MRSA KS2, read-out: MIC): 0.20 µM (≈ 0.328 µg/mL)
TI (IC50/MIC50) ([2]; in vitro therapeutic index, MRSA): 641
MIC50 ([2]; median MIC, 24 clinical MRSA isolates, read-out: MIC50): 0.39 µM (≈ 0.639 µg/mL)
MIC (VE 150 (VanB)): 1.56 µM (≈ 2.55 µg/mL)
MIC (VE 82 (VanC1)): 0.78 µM (≈ 1.28 µg/mL)
IC50 [3]: > 250 µM
MIC-fold improvement vs. vancomycin [4]: 22
MIC (VE 157 (VanB)): 0.78 µM (≈ 1.28 µg/mL)
MIC-fold improvement vs. vancomycin (MRSA KS89; MRSA KS8, ratio of MIC of vancomycin and MIC of analogue): 4
MIC (MRSA KS89; Staphylococcus aureus MRSA KS8, read-out: MIC): 0.20 µM (≈ 0.328 µg/mL)
MIC (VE 152 (VanB)): 0.78 µM (≈ 1.28 µg/mL)
MIC-fold improvement vs. vancomycin (MRSA KS1; MRSA KS1, ratio of MIC of vancomycin and MIC of analogue): 4
MIC (MRSA KS1; Staphylococcus aureus MRSA KS1, read-out: MIC): 0.20 µM (≈ 0.328 µg/mL)
MIC (E. faecalis VSE 1; Enterococcus faecalis VSE 1 (vancomycin-sensitive), read-out: MIC): 0.20 µM (≈ 0.328 µg/mL)
MIC-fold improvement vs. vancomycin (E. faecalis VSE 1; VSE 1, ratio of MIC of vancomycin and MIC of analogue): 8
MIC (VE 149 (VanB)): 0.78 µM (≈ 1.28 µg/mL)
IC50 [5]: > 250 µM
MBC relative to MIC (MRSA): MBC equaling their MIC values
MIC (S. aureus VISA/HIP5827; Staphylococcus aureus VISA/HIP5827, read-out: MIC): 0.39 µM (≈ 0.639 µg/mL)
MIC-fold improvement vs. vancomycin (S. aureus VISA/HIP5827; VISA/HIP5827, ratio of MIC of vancomycin and MIC of analogue): 16
IC50 [6]: > 250 µM
IC50 ([7]; average IC50 used for TI in Table S5, >250 entered as 250, read-out: IC50): 250 µM
IC50 ([7]; average of L1210, CEM and HeLa, read-out: Toxicity (IC50) Average): > 250 µM
IC50 ([7]; summary over the three cell lines, read-out: IC50 (L1210, CEM, HeLa), depending on the cell line used): > 250 µM
MIC (E. faecalis VRE 29; Enterococcus faecalis VRE 29 (vancomycin-resistant), read-out: MIC): 6.25 µM (≈ 10.2 µg/mL)
MIC-fold improvement vs. vancomycin (E. faecalis VRE 29; VRE 29, ratio of MIC of vancomycin and MIC of analogue): 64
MIC Range (33 clinical VRE isolates; 33 clinical VRE isolates): 0.78 to 12.5 µM
TI (IC50/MIC50) (33 clinical VRE isolates; in vitro therapeutic index, VRE): 80
MIC50 (33 clinical VRE isolates; median MIC, 33 clinical VRE isolates, read-out: MIC50): 3.13 µM (≈ 5.13 µg/mL)
MIC (E. faecalis VRE 37; Enterococcus faecalis VRE 37 (vancomycin-resistant), read-out: MIC): 6.25 µM (≈ 10.2 µg/mL)
MIC-fold improvement vs. vancomycin (E. faecalis VRE 37; VRE 37, ratio of MIC of vancomycin and MIC of analogue): 64
MIC (VE 148 (VanB)): 3.13 µM (≈ 5.13 µg/mL)
MIC (E. faecalis VRE 6; Enterococcus faecalis VRE 6 (vancomycin-resistant), read-out: MIC): 3.13 µM (≈ 5.13 µg/mL)
MIC-fold improvement vs. vancomycin (E. faecalis VRE 6; VRE 6, ratio of MIC of vancomycin and MIC of analogue): 64
MIC ([8]; Staphylococcus aureus VSSA, read-out: MIC): 0.05 µM (≈ 0.0819 µg/mL)
MIC-fold improvement vs. vancomycin ([8]; VSSA, ratio of MIC of vancomycin and MIC of analogue): 16
MIC (E. faecalis VRE 53; Enterococcus faecalis VRE 53 (vancomycin-resistant), read-out: MIC): 50 µM (≈ 81.9 µg/mL)
MIC-fold improvement vs. vancomycin (E. faecalis VRE 53; VRE 53, ratio of MIC of vancomycin and MIC of analogue): 8
MIC-fold improvement vs. vancomycin (MRSA KS6; MRSA KS6, ratio of MIC of vancomycin and MIC of analogue): 4
MIC (MRSA KS6; Staphylococcus aureus MRSA KS6, read-out: MIC): 0.20 µM (≈ 0.328 µg/mL)
MIC (S. aureus VRSA; Staphylococcus aureus VRSA, read-out: MIC): 0.78 µM (≈ 1.28 µg/mL)
MIC-fold improvement vs. vancomycin (S. aureus VRSA; VRSA, ratio of MIC of vancomycin and MIC of analogue): 128
